pIC50: −log10 of the molar value.
Assays:
HEL299 = assay: Anti-proliferation activity in HEL299; assay type: cell-based; conditions: HEL 299; HEL299, derived from a human embryo lung tissue
[1] = In vitro metabolic stability, mouse liver microsomes; assay type: in vitro ADME
Protocol: (§1) NADPH regeneration system (13 mM NADP, 33 mM Glucose-6-phospate, 33 mM MgCl2, and 4 U/mL of Glucose-6-phosphate dehydrogenase) and liver microsomes (1 mg/mL of HLM (BD Gentest, lot 18888) or MLM (BD Gentest, lot 31197)) in 0.1 M phosphate buffer (pH 7.4) were pre-incubated separately at 37° C. for 20 min before mixing with 1:4 ratio. 50 μL of the mixed solution was added to 50 μL of the test compound (2 μM) to initiate the reaction at 37° C. (final conc. 1 μM test compound, 0.4 mg/mL liver microsomes, and 1.3 mM NADPH). After 30 min, the reactions were stopped by adding 300 μL of cold acetonitrile. For 0 min samples, ice-cold acetonitrile (with system suitability standard) was treated before mixing the test compound and microsomes. The sample were vortexed well and then centrifuged at 3500 rpm at 15° C. for 20 min. 110 μL of supernatant was mixed with 110 μL of water and quantitated by LC-MS/MS workstation (Shimazu Corp.).

[2] = system: phosphorylation of MCM2 in Colo-205 cells; assay: Recovery of MCM2 phosphorylation after inhibitor washout; assay type: cell-based, human; conditions: Colo-205 cells treated 48 hours, then compound-free media
Protocol: Colo-205 cells were treated with or without compounds for 48 h. After inhibitor washout with compound-free media, the cells were lysed at the indicated time and subjected to western blot analysis.
Next, we investigated the recovery of substrate phosphorylation in cells after inhibitor washout to see whether the slow-off rate of inhibitor affects the recovery of phosphorylation. Colo-205 cells were treated for 48 hours with 13, and then, the inhibitor was washed out with compound-free media. The cells were lysed at the indicated time, and the phosphorylation status of MCM2 was analyzed by western blotting.

DYRK1B = DYRK1B (Homo sapiens, UniProt Q9Y463); assay: Kinase selectivity IC50, DYRK1B; assay type: biochemical
Sequence of DYRK1B (Q9Y463 whole entry): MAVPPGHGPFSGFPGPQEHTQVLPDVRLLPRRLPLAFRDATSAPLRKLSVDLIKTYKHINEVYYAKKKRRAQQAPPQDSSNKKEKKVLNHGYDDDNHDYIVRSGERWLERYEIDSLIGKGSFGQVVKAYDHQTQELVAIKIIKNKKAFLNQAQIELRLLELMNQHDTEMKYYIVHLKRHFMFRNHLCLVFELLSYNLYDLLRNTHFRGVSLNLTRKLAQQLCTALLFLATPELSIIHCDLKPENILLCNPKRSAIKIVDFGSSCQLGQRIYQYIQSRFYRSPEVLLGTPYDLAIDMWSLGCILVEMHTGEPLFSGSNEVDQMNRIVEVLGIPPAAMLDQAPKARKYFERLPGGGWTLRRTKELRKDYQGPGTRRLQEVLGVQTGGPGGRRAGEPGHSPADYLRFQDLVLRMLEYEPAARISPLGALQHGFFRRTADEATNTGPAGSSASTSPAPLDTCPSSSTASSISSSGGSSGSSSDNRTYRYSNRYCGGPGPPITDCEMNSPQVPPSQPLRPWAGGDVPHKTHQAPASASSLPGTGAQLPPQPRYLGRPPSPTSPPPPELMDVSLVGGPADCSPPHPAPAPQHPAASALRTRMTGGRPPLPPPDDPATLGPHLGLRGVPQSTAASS
Protocol: (§2) To investigate the representative kinase selectivity of these compounds at physiological ATP levels, compound 13 was screened over a panel of 121 kinases in the presence of 1 mM ATP with preincubation method. […] IC50 values of hit kinases were determined to confirm the selectivity of compound 13.

[3] = system: phosphorylation at Ser53 of MCM2; assay: Western blotting of MCM2 phosphorylation in Colo-205 cells; assay type: cell-based, human; conditions: 48 h, even at 0.1 μM
Protocol: (§3) FIGS. 3A and 3B illustrate the effects of Cdc7 inhibition by compound 13 in Colo-205 cells. a) Western blot analysis of extracts prepared from Colo-205 cells at 48 h after treatment with DMSO control (0 μM) or compound 13 at indicated concentrations. b) […] analysis of Colo-205 cells treated for 48 h with DMSO control (0 μM) and the indicated concentration of compound 13. DNA content was measured by FACS after propidium iodide staining.
(§4) Human colon adenocarcinoma cell line Colo-205 was obtained from American Type Culture Collection (ATCC, Manassas Va.). Cells were grown in RPMI1640 supplemented with 10% FBS and 1% penicillin/streptomycin at 37° C., 5% CO2 and 95% humidity. Antibodies against Phospho-Histone H2A.X (Ser139) (no. 2577), Cleaved PARP (Asp214) (no. 9541) and MCM2 (no. 3619) were obtained from Cell signaling Technology. […]
(§5) Cells were seeded in T75 flasks (cell density, 2.25×10^6 cells/13.5 mL) and then incubated at 37° C. overnight. […] After washing with cold D-PBS, cells were scraped and lysed using a lysis buffer [RIPA Buffer (×1) containing 1% Phosphatase inhibitor Cocktail 3, 1% Phosphatase inhibitor Cocktail, and 1 mM phenylmethylsulfonyl fluoride], and the obtained samples were analyzed by western blotting. […] Each band was detected by chemiluminescence using a CCD camera (ImageQuant LAS 500, GE healthcare Ltd.).

[4] = In vitro metabolic stability, human liver microsomes; assay type: in vitro ADME
Protocol: as §1

phospho-H2AX (γ-H2AX) = assay: Western blotting of phospho-H2AX in Colo-205 cells; assay type: cell-based, human; conditions: 48 h
Protocol: as §3, §4, §5

cleaved PARP = assay: Western blotting of cleaved PARP in Colo-205 cells; assay type: cell-based, human; conditions: 48 h
Protocol: as §3, §4, §5

Erk1 = Erk1 (Homo sapiens, UniProt P27361); assay: Kinase selectivity IC50, Erk1; assay type: biochemical
Sequence of Erk1 (P27361 whole entry): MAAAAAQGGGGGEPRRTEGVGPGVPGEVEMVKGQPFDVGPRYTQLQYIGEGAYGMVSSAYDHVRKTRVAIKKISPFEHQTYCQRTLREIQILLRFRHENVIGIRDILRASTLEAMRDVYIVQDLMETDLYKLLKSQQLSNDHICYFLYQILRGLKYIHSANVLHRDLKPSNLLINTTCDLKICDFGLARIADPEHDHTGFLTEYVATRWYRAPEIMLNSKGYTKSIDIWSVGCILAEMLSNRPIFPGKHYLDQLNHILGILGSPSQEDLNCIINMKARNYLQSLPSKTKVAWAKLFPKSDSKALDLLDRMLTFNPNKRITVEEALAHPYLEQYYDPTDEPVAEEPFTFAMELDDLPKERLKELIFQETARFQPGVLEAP
Protocol: as §2

[5] = Half-life after intravenous administration in mice; conditions: mouse, in vivo
PIM1 = PIM1 (Homo sapiens, UniProt P11309); assay: Kinase selectivity IC50, PIM1; assay type: biochemical
Sequence of PIM1 (P11309 whole entry): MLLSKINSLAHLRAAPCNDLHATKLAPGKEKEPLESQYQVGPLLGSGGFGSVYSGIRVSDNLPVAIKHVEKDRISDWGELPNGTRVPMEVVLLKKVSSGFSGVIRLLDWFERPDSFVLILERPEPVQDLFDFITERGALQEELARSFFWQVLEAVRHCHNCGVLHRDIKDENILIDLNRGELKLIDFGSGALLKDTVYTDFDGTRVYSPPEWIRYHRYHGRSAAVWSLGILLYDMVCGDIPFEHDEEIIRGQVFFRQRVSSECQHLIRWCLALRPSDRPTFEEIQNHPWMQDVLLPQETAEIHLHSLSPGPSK
Protocol: as §2

[6] = 1 mM ATP with preincubation, mean of duplicated assays

Structure (SMILES): CCOC(=O)C1=C(Nc2ccccc2Cl)OC(=Cc2c[nH]c3ncccc23)C1=O [Compound 13, Ethyl 5-((1H-pyrrolo[2,3-b]pyridin-3-yl)methylene)-2-((2-chlorophenyl)amino)-4-oxo-4,5-dihydrofuran-3-carboxylate]
- pIC50 (HEL299): 5.92
- MLM % (remaining % of parent compound) ([1]; 30 min treatment of mouse liver microsomes): 58%
- metabolic stability in mice (in words) ([1]; mouse): improved metabolic stabilities
- phosphorylation of MCM2 after inhibitor washout [2]: inhibited even 24 hours after washout
- IC50 (DYRK1B; [6]): 53 nM
- Fold selectivity, DYRK1B (DYRK1B; IC50 versus Cdc7): 88 fold
- inhibition of phosphorylation at Ser53 of MCM2 [3]: potently inhibited
- HLM % (remaining % of parent compound) ([4]; 30 min treatment of human liver microsomes): 67%
- metabolic stability in human liver microsome (in words) ([4]; human): improved metabolic stabilities
- DNA double strand breaks (phospho-H2AX, γ-H2AX) (phospho-H2AX (γ-H2AX)): DNA strand breakages were observed
- cleaved PARP (apoptosis marker) (cleaved PARP): Dose-dependent increases
- IC50 (Erk1; [6]): 278 nM
- Fold selectivity, Erk1 (Erk1; IC50 versus Cdc7): 463 fold
- half-life [5]: 22.8 min
- IC50 (PIM1; [6]): 77 nM
- Fold selectivity, PIM1 (PIM1; IC50 versus Cdc7): 129 fold

Source: patent US20200055848A1, “FURANONE DERIVATES AND METHODS OF USE THEREOF” (CARNA BIOSCIENCES, INC., priority 2016, published 2020)
